In the assay the test system is HCT-116 human colon carcinoma cells. The assay can be described thus: In vitro cytotoxicity, XTT assay in HCT-116 human colon carcinoma cells (72 h). The assay is classed as cell-based. To be noted: for Ratio of IC50 of Compound I over Paclitaxel: HCT-116, ratio to paclitaxel IC50; for IC50: Homo sapiens, HCT-116, XTT, 72 hours, 4000 cells/well, read-out: IC50 HCT-116 (drug concentration required to inhibit cell proliferation to 50% of untreated control cells). On the procedure: Cytotoxicity was assessed in HCT-116 human colon carcinoma cells by XTT (2,3-bis(2-methoxy-4-nitro-5-sulfphenyl)-5-[(phenylamino)carbonyl]2H-tetrazolium hydroxide) assay as reported in D. A. Scudiero, et al., "Evaluation of soluble tetrazolium/formazan assay for cell growth and drug sensitivity in culture using human and other tumor cell lines," Cancer Res. 48:4827-4833, 1988. Cells were plated at 4000 cells/well in 96 well microtiter plates and 24 hours later drugs were added and serial diluted. The cells were incubated at 37° C. for 72 hours at which time the tetrazolium dye, XTT, was added. A dehydrogenase enzyme in live cells reduces the XTT to a form that absorbs light at 450 nm which can be quantitated spectrophotometrically. The greater the absorbance, the greater the number of live cells. The results are expressed in Table I as an IC50, which is the drug concentration required to inhibit cell proliferation (i.e., absorbance at 450 nm) to 50% of that of untreated control cells.
In general terms: Tetrazolium assays rely on reduction of a dye to a coloured formazan, in cell work by metabolically active cells.

The record followed here is patent US5840929A, “C4 methoxy ether derivatives of paclitaxel” (Bristol-Myers Squibb Company, priority 1996, dated 1998).

Consider `CO[C@@]12CO[C@@H]1C[C@H](O)[C@@]1(C)C(=O)[C@H](OC(C)=O)C3=C(C)[C@@H](OC(=O)[C@H](O)[C@@H](NC(=O)c4ccccc4)c4ccccc4)C[C@@](O)([C@@H](OC(=O)c4ccccc4)[C@H]21)C3(C)C` [Compound Ia, 4-deacetyloxy-4-methoxypaclitaxel], for which the “Ratio of IC50 of Compound I over Paclitaxel” value is listed as 21.7 and the IC50 came to 34.7 nM.
The like results for `CO[C@@]12CO[C@@H]1C[C@H](O)[C@@]1(C)C(=O)[C@H](OC(C)=O)C3=C(C)[C@@H](OC(=O)[C@H](O)[C@@H](NC(=O)OC(C)(C)C)c4ccco4)C[C@@](O)([C@@H](OC(=O)c4ccccc4)[C@H]21)C3(C)C` [Compound Ib, 4-deacetyloxy-4-methoxy-3'-desphenyl-3'-(2-furyl)-3'-N-debenzoyl-3'-N-butoxycarbonyl(paclitaxel)] were, in that order, 1.61 and 3.7 nM.
For `CO[C@@]12CO[C@@H]1C[C@H](O)[C@@]1(C)C(=O)[C@H](OC(C)=O)C3=C(C)[C@@H](OC(=O)[C@H](O)[C@@H](NC(=O)OC(C)(C)C)c4ccccc4)C[C@@](O)([C@@H](OC(=O)c4ccccc4)[C@H]21)C3(C)C` [Compound Ic, 4-deacetyloxy-4-methoxy-3'-N-debenzoyl-3'-N-butoxycarbonyl(paclitaxel)] the same measures were 1.69 and 2.2 nM.
As for `CC(=O)O[C@H]1C(=O)[C@@]2(C)[C@H]([C@H](OC(=O)c3ccccc3)[C@]3(O)C[C@H](OC(=O)[C@H](O)[C@@H](NC(=O)c4ccccc4)c4ccccc4)C(C)=C1C3(C)C)[C@]1(OC(C)=O)CO[C@@H]1C[C@@H]2O` [Paclitaxel, paclitaxel], the IC50 fell in the range of 1.3 to 2.3 nM.
